The text below walks through data of ChEMBL document CHEMBL4004868, “Synthesis and in vitro biological evaluation of novel quinazoline derivatives” (Bioorg Med Chem Lett, 2017).

In data set [1] the test system is A-431. Kind of data set: Cytotoxicity against human A431 cells assessed as decrease in cell viability after 72 hrs by MTT assay. In kind it is functional. A general note: Formazan colour is commonly taken as a measure of viable cells.
In data set [2] the test system is A549. Kind of data set: Cytotoxicity against human A549 cells assessed as decrease in cell viability after 72 hrs by MTT assay. In kind it is functional.
Data set [3] concerns NCI-H1975. As to the kind of experiment: Cytotoxicity against human NCI-H1975 cells assessed as decrease in cell viability after 72 hrs by MTT assay. In kind it is functional.
For data set [4], the system named is SW480. As to the kind of experiment: Cytotoxicity against human SW480 cells assessed as decrease in cell viability after 72 hrs by MTT assay. In kind it is functional.
Data set [5] addresses T1, Epidermal growth factor receptor (Homo sapiens, UniProt P00533). As to the kind of experiment: Inhibition of wild type recombinant EGFR (unknown origin) using poly (Glu,Tyr) 4:1 as substrate after 60 mins by ELISA. (In general: An ELISA detects its analyte on a solid surface through an enzyme-linked reagent.)
Data set [6] addresses T1, Epidermal growth factor receptor. As to the kind of experiment: Inhibition of EGFR in human NCI-H1975 cells assessed as decrease in Akt phosphorylation at S473 at 50 uM preincubated for 2 hrs followed by EGF induction measured after 10 mins by Western blot method. In kind it is cell-based. (Immunoblotting shows a protein as a band on a membrane.)
The test system of data set [7] is A549. Kind of data set: Effect on total EGFR levels in human A549 cells at 1 to 50 uM after 2 hrs by Western blot method. The note with it: a549, 2 h. In kind it is ADME, cell-based.
Data set [8] addresses T1, Epidermal growth factor receptor. Kind of data set: Inhibition of EGFR phosphorylation at Y1068 in human NCI-H1975 cells at 50 uM preincubated for 2 hrs followed by EGF induction measured after 10 mins by Western blot method. In kind it is cell-based.
For data set [9] the target is unchanged. Kind of data set: Inhibition of EGFR phosphorylation at Y1068 in human A549 cells at 1 uM preincubated for 2 hrs followed by EGF induction measured after 10 mins by Western blot method. In kind it is cell-based.
Data set [10] has as its system A549. As to the kind of experiment: Effect on total Erk levels in human A549 cells at 1 to 50 uM after 2 hrs by Western blot method. In kind it is ADME, cell-based. The conditions noted are these: a549, 2 h.
Data set [11] has as its target T1, Epidermal growth factor receptor. As to the kind of experiment: Inhibition of EGFR in human A549 cells assessed as decrease in ERK1/2 phosphorylation at T202/204 at 1 uM preincubated for 2 hrs followed by EGF induction measured after 10 mins by Western blot method. In kind it is cell-based.
Data set [12] shares this target. Kind of data set: Inhibition of EGFR phosphorylation at Tyr residue in human A549 cells at 1 uM preincubated for 2 hrs followed by EGF induction measured after 10 mins by Western blot method. In kind it is cell-based.
For data set [13] the target is unchanged. As to the kind of experiment: Inhibition of EGFR in human NCI-H1975 cells assessed as decrease in Erk1/2 phosphorylation at T202/204 at 50 uM preincubated for 2 hrs followed by EGF induction measured after 10 mins by Western blot method. In kind it is cell-based.
For data set [14] the target is unchanged. As to the kind of experiment: Inhibition of EGFR phosphorylation at Tyr residue in human NCI-H1975 cells at 50 uM preincubated for 2 hrs followed by EGF induction measured after 10 mins by Western blot method. In kind it is cell-based.
The test system of data set [15] is A549. Kind of data set: Effect on total GAPDH levels in human A549 cells at 1 to 50 uM after 2 hrs by Western blot method. In kind it is ADME, cell-based. The conditions noted are these: a549, 2 h.
The target in data set [16] is T1, Epidermal growth factor receptor. Kind of data set: Inhibition of EGFR in human A549 cells assessed as decrease in Akt phosphorylation at S473 at 1 uM preincubated for 2 hrs followed by EGF induction measured after 10 mins by Western blot method. In kind it is cell-based.
The subject of data set [17] is A549. Kind of data set: Effect on total Akt levels in human A549 cells at 1 to 50 uM after 2 hrs by Western blot method. In kind it is ADME, cell-based. The note with it: a549, 2 h.

Activity calls are given as the source filed them. The calls are words filed in the database; no cut-off is given here.

T1 sequence (P00533 whole entry): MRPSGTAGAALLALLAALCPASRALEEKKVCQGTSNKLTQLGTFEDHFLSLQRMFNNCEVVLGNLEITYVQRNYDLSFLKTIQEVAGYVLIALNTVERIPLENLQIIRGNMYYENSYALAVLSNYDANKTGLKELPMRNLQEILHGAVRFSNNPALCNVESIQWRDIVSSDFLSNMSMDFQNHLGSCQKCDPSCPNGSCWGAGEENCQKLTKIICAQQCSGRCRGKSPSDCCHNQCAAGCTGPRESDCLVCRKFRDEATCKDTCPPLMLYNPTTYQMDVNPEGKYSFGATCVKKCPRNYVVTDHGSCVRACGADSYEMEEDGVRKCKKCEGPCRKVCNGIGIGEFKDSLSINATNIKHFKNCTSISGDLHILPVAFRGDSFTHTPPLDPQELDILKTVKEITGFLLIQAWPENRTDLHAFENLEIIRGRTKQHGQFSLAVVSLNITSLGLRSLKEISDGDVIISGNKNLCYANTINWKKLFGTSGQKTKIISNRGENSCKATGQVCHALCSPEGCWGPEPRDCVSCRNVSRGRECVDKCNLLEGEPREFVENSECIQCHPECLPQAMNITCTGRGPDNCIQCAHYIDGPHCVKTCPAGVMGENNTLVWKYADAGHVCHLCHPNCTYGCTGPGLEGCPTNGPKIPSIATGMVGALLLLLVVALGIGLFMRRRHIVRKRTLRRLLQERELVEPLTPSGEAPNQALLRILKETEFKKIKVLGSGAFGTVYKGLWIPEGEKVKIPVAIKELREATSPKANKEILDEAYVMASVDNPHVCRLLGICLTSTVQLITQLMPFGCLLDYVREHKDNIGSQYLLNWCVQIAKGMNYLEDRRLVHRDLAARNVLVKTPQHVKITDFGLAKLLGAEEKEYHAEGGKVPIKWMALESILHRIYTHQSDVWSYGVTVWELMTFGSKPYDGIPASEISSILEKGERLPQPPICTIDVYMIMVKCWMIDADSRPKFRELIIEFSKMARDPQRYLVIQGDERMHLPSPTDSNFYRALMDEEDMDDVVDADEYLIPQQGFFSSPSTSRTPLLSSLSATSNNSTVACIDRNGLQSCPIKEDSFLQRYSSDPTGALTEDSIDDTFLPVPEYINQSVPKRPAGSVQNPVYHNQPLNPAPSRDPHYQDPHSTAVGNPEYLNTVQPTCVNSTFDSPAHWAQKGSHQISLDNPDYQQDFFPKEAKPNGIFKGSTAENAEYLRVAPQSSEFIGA

For the compound `C#Cc1cccc(Nc2ncnc3ccc(-c4ccc(CNCCS(C)(=O)=O)o4)cc23)c1`, the IG50 in [1] is 5.78 µM; in data set [2], 11.35 µM; in data set [3], 14.92 µM; in [4], 13.38 µM.
Regarding `CC(=O)OCc1ccc(-c2ccc3ncnc(Nc4ccc(OCc5cccc(F)c5)c(Cl)c4)c3c2)o1`, the IG50 in data set [1] came out at 8.33 µM; in data set [2] it was 5.49 µM; in [3], 6.78 µM; in data set [4], 5.18 µM.
Taken in the same sequence, the figures for `C#Cc1cccc(Nc2ncnc3ccc(-c4ccc(COC(C)=O)o4)cc23)c1` were 1.28 µM, 4.05 µM, 5.4 µM and 14.97 µM.
`C/C=C/c1ccc(Nc2ncnc3ccc(-c4ccc(COC(C)=O)o4)cc23)cc1`: the IG50 in data set [1] turned out to be 5.53 µM; in [2], 20.61 µM; in [3] it was 40.85 µM; in data set [4] it was 11.18 µM.
Consider `C/C=C/c1ccc(Nc2ncnc3ccc(-c4ccc(CNCCS(C)(=O)=O)o4)cc23)cc1`, for which the IG50 in [1] was 37.56 µM; in data set [2], 84.5 µM; in data set [3], greater than 100 µM; in [4] it was 56.34 µM.
On to `CS(=O)(=O)CCNCc1ccc(-c2ccc3ncnc(Nc4ccc(F)c(Cl)c4)c3c2)o1`, for which the IG50 in [1] is 39.34 µM; in data set [2], greater than 100 µM; in data set [3], 83.61 µM; in [4], 60.59 µM. For the same compound, the half-maximal inhibitory concentration (IC50) in [5] came to 0.024 µM.
On to `CS(=O)(=O)CCNCc1ccc(-c2ccc3ncnc(Nc4ccc(OCc5cccc(F)c5)c(Cl)c4)c3c2)o1` [LAPATINIB], for which the IG50 in data set [1] was found to be 4.8 µM; in data set [2], 14.9 µM; in data set [3] it was 9.08 µM; in data set [4], 12.58 µM.
Consider `C#Cc1cccc(Nc2ncnc3ccc(-c4ccc(CO)o4)cc23)c1`, for which the IG50 in data set [1] is 3.21 µM; in data set [2], greater than 100 µM; in data set [3], greater than 100 µM; in data set [4], greater than 100 µM. Moreover, in [5], the IC50 was 0.0157 µM.
For the compound `CC(=O)OCc1ccc(-c2ccc3ncnc(Nc4ccc(F)c(Cl)c4)c3c2)o1`, the IG50 in data set [1] was 10.75 µM; in [2], greater than 100 µM; in [3], 54.13 µM; in data set [4] it was 43.18 µM.
For `OCc1ccc(-c2ccc3ncnc(Nc4ccc(F)c(Cl)c4)c3c2)o1`, the IG50 in data set [1] was 3.91 µM; in data set [2], greater than 100 µM; in [3], greater than 100 µM; in [4] it was greater than 100 µM.
On to `C/C=C/c1ccc(Nc2ncnc3ccc(-c4ccc(CO)o4)cc23)cc1`, for which the IG50 was found to be 21.43 µM in data set [1], 38.24 µM in [2], 37.93 µM in data set [3] and 51.25 µM in data set [4].
Consider `OCc1ccc(-c2ccc3ncnc(Nc4ccc(OCc5cccc(F)c5)c(Cl)c4)c3c2)o1`, for which the inhibition result in data set [6], in [8], in [9], in data set [11], in data set [12] and in data set [13] was “Active” in each case. For the same compound, the inhibition result in data set [14] and in data set [16] was “Active” in each case. In addition, the Activity entry in [7], in data set [10], in data set [15] and in data set [17] was “Non-Toxic” throughout. Moreover, the IG50 in data set [1] came out at 3.64 µM; in data set [2], 7.35 µM; in [3], 3.01 µM; in data set [4], 5.58 µM. The IC50 in data set [5] came to 0.00506 µM.

For orientation: IC50 means the concentration at which inhibition is half-maximal.
